The values that follow come from patent US9670213B2, “Pteridine ketone derivative and applications thereof as EGFR, BLK, and FLT3 inhibitor” (EAST CHINA UNIVERSITY OF SCIENCE AND TECHNOLOGY, priority 2012, dated 2017).

One experiment deals with wild-type EGFR (Homo sapiens (Human), UniProt P00533). Kind of experiment: In vitro EGFR kinase activity assay (Z'-Lyte). Format: biochemical. The conditions noted are these: EGFR WT; read-out: Inhibitory activity on EGFR kinase (IC50, nM) WT.
For a further experiment, the target named is EGFR-L858R (Homo sapiens (Human), UniProt P00533, L858R). Kind of experiment: In vitro EGFR kinase activity assay (Z'-Lyte). It counts as biochemical. The conditions noted are these: read-out: Inhibitory activity on EGFR kinase (IC50, nM) L858R.
For another experiment, the target named is EGFR-L858R/T790M (Homo sapiens (Human), UniProt P00533, L858R/T790M). Kind of experiment: In vitro EGFR kinase activity assay (Z'-Lyte). Format: biochemical. The conditions noted are these: read-out: Inhibitory activity on EGFR kinase (IC50, nM) T790M/L858R.
For experiment [1], the system named is H1975 (non-small cell lung cancer cells, EGFR L858R/T790M). Kind of experiment: Cell proliferation and growth inhibition analysis. Format: cell-based. The conditions noted are these: Homo sapiens, NCI-H1975, 72 hours, read-out: Inhibitory activity on cell proliferation (IC50, μM) H1975.
Experiment [2] has as its system HCC827 (non-small cell lung cancer cells, EGFR del E746-A750). Nature of the experiment: Cell proliferation and growth inhibition analysis. It counts as cell-based. The conditions noted are these: Homo sapiens, 72 hours, read-out: Inhibitory activity on cell proliferation (IC50, μM) HCC827.
Experiment [3] deals with T1, BLK (Homo sapiens (Human), UniProt P51451). Kind of experiment: BLK kinase activity assay (Caliper). It counts as biochemical. The conditions noted are these: read-out: Inhibitory activity on kinase (IC50, nM) BLK.
The next experiment deals with FLT3 (Homo sapiens (Human), UniProt P36888). Nature of the experiment: FLT3 kinase activity assay (Caliper). It counts as biochemical. The conditions noted are these: read-out: Inhibitory activity on kinase (IC50, nM) FLT3.
Another experiment deals with ABL (Homo sapiens (Human), UniProt P00519). Nature of the experiment: Kinase selectivity analysis (Caliper mobility shift assay). The conditions noted are these: for inhibition at 1 µM: read-out: % inhibition (1 μM), 1 μM; for inhibition at 10 µM: read-out: % inhibition (10 μM), 10 μM. Format: biochemical. The method, then: (§1) Kinase selectivity analysis: kinase selectivity experiment was performed by Shanghai ChemPartner using Caliper assay screening platform. All of kinases and other materials were purchased from commercial companies.
(§2) 3. Preparation of assay plate: 5 μL of solution from each well of the 96-well temporary plate was added into a 384-well plate, and the experiment was independently repeated.
(§3) 5. Caliper readings: experimental data were collected on Caliper.
(§4) 6. Curve fitting: 1) conversion data were replicated from Caliper program. 2) the conversion value was converted into inhibition rate, inhibition rate %=(maximum−conversion value)/(maximum−minimum)*100, wherein “maximum” represents DMSO control, and minimum represents the low control.

For the next experiment, the target named is AUR B (Homo sapiens (Human), UniProt Q96GD4). The description is as above. The note with it: for inhibition at 1 µM: read-out: % inhibition (1 μM), 1 μM; for inhibition at 10 µM: read-out: % inhibition (10 μM), 10 μM. It counts as biochemical. The method, then:
as §1, §2, §3, §4

The target of experiment [4] is T1, BLK. The experiment is described as above. It counts as biochemical. The note with it: for inhibition at 1 µM: read-out: % inhibition (1 μM), 1 μM; for inhibition at 10 µM: read-out: % inhibition (10 μM), 10 μM. The method, then: as §1, §2, §3, §4
The target of a further experiment is CDK2 (Homo sapiens (Human), UniProt P24941). Described as above. It counts as biochemical. The conditions noted are these: for inhibition at 1 µM: read-out: % inhibition (1 μM), CDK2, 1 μM; for inhibition at 10 µM: read-out: % inhibition (10 μM), CDK2, 10 μM. The method, then: as §1, §2, §3, §4
Another experiment has as its target GSK3b (Homo sapiens (Human), UniProt P49841). Described as above. It counts as biochemical. The note with it: for inhibition at 1 µM: read-out: % inhibition (1 μM), 1 μM; for inhibition at 10 µM: read-out: % inhibition (10 μM), 10 μM. The method, then: as §1, §2, §3, §4
The target of another experiment is HER4 (Homo sapiens (Human), UniProt Q15303). The experiment is described as above. It counts as biochemical. The note with it: for inhibition at 1 µM: read-out: % inhibition (1 μM), HER4, 1 μM; for inhibition at 10 µM: read-out: % inhibition (10 μM), HER4, 10 μM. The method, then: as §1, §2, §3, §4
A further experiment concerns the target PKACa (Homo sapiens (Human), UniProt P17612). The description is as above. It counts as biochemical. The note with it: for inhibition at 1 µM: read-out: % inhibition (1 μM), 1 μM; for inhibition at 10 µM: read-out: % inhibition (10 μM), 10 μM. The method, then:
as §1, §2, §3, §4
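For Inhibitory activity on EGFR kinase (IC50, nM) L858R in this document: Cell-free kinase reaction with peptide substrate and ATP, 1.5 h at room temperature, then development step cleaving non-phosphorylated peptide, 10-point dilution series 0.051–1000 nM, phosphopeptide as 100% phosphorylation control.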
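For Inhibitory activity on EGFR kinase (IC50, nM) T790M/L858R in this document: Cell-free kinase reaction with peptide substrate and ATP, 1.5 h at room temperature, development cleaving unphosphorylated peptide, 10-point dilution 0.051–1000 nM, phosphopeptide as 100% phosphorylation control.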
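For Inhibitory activity on EGFR kinase (IC50, nM) WT in this document: Ten-point dose series from 5.1×10^−11 to 1.0×10^−6 mol/L, kinase reaction 1.5 h at room temperature, then 1 h development cleaving unphosphorylated peptide, phosphopeptide as 100% phosphorylation control.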

T1 sequence (P51451 whole entry): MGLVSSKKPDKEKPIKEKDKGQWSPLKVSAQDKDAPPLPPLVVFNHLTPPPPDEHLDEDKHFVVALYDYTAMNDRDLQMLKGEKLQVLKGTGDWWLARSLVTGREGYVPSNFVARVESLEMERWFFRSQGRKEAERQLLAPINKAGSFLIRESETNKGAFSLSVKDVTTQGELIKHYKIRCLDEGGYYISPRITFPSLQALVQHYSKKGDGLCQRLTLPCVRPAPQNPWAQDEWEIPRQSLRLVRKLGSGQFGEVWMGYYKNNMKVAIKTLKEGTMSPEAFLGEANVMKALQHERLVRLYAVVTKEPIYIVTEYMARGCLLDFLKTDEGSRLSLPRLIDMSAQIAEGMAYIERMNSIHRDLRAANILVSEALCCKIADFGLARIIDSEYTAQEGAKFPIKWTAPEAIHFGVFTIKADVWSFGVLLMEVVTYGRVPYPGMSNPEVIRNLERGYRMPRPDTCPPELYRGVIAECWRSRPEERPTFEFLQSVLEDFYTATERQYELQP
Sequence of GSK3b (P49841 whole entry, species assumed): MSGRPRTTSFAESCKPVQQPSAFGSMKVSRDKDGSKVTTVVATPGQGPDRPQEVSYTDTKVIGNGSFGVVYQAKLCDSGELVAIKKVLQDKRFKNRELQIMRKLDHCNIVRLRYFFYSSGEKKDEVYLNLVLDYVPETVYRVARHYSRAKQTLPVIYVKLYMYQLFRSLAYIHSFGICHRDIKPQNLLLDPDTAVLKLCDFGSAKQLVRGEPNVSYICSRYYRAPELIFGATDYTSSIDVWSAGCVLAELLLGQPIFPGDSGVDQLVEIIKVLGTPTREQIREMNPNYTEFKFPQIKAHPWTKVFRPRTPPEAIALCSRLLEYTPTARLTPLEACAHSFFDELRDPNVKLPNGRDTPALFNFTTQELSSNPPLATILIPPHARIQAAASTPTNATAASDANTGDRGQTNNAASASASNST
Sequence of ABL (P00519 whole entry, species assumed): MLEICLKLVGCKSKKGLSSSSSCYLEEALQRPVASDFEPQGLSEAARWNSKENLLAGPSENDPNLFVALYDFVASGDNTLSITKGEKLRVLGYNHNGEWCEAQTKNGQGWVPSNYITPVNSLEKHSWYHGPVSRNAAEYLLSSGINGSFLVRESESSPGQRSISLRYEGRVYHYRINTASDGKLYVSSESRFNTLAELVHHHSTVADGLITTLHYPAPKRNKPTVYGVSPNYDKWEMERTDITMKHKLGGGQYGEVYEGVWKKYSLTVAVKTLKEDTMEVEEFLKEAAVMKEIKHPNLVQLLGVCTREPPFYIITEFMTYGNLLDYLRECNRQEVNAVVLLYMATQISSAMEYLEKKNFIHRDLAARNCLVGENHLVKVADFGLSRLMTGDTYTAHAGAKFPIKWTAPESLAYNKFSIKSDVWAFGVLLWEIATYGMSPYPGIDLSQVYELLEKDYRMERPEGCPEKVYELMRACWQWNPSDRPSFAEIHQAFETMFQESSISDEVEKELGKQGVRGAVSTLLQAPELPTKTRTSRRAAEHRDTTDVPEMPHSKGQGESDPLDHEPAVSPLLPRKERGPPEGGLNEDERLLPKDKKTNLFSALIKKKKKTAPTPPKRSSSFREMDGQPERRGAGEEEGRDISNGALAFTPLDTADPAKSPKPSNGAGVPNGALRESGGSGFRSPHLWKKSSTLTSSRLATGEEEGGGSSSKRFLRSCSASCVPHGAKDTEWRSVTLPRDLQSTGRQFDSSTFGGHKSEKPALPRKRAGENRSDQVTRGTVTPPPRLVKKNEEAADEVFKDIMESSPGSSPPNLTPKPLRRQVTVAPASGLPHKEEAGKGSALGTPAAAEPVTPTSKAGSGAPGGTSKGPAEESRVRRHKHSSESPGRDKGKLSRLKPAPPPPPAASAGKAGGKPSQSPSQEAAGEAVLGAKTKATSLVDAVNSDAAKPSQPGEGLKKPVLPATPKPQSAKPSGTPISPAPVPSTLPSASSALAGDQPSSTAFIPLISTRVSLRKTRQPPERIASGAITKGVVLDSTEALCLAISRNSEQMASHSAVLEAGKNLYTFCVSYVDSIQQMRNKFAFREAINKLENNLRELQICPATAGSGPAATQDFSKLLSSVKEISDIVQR
Sequence of AUR B (Q96GD4 whole entry): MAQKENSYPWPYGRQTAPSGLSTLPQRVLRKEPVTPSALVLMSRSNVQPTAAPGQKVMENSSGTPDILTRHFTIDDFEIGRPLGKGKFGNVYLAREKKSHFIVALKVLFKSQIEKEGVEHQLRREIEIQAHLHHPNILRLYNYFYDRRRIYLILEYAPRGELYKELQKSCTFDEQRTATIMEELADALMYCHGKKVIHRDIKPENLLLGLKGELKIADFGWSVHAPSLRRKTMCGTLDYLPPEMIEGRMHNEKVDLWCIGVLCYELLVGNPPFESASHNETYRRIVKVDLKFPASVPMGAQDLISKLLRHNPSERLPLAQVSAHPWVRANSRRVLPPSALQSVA
Sequence of HER4 (Q15303 26-1308, species assumed): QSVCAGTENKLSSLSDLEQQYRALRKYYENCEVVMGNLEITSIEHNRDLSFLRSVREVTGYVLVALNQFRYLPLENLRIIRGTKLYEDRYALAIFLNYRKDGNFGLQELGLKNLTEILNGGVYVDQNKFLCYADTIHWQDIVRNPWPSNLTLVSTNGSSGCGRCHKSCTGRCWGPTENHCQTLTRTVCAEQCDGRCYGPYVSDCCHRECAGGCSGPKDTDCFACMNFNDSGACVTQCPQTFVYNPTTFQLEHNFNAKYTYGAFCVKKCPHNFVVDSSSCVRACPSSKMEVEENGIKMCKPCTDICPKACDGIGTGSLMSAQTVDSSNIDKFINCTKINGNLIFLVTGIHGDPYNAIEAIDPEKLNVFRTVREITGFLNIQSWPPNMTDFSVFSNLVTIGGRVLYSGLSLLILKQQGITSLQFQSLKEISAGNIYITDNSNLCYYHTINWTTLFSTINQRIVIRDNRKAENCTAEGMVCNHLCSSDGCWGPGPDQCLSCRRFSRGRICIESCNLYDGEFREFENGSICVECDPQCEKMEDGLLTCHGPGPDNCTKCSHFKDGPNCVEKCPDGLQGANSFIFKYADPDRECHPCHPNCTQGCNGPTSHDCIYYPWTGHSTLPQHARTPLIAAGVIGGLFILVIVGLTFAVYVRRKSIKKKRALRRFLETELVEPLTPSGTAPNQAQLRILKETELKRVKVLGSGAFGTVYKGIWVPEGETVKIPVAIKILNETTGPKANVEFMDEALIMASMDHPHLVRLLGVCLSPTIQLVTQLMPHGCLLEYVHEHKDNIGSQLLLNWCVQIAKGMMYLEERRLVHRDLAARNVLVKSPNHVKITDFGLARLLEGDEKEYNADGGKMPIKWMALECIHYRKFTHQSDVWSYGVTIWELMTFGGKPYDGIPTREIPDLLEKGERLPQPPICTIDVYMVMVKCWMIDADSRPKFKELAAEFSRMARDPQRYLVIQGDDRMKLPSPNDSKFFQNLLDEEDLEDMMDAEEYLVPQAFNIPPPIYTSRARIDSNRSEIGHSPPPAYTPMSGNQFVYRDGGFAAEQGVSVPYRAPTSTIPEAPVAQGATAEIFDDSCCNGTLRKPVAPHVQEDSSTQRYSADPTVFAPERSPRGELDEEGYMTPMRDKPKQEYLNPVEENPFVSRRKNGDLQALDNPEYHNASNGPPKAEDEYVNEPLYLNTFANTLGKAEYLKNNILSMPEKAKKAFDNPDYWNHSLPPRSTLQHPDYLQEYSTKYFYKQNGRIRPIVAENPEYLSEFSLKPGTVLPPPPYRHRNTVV
Sequence of EGFR-L858R (P00533 25-1210 L858R): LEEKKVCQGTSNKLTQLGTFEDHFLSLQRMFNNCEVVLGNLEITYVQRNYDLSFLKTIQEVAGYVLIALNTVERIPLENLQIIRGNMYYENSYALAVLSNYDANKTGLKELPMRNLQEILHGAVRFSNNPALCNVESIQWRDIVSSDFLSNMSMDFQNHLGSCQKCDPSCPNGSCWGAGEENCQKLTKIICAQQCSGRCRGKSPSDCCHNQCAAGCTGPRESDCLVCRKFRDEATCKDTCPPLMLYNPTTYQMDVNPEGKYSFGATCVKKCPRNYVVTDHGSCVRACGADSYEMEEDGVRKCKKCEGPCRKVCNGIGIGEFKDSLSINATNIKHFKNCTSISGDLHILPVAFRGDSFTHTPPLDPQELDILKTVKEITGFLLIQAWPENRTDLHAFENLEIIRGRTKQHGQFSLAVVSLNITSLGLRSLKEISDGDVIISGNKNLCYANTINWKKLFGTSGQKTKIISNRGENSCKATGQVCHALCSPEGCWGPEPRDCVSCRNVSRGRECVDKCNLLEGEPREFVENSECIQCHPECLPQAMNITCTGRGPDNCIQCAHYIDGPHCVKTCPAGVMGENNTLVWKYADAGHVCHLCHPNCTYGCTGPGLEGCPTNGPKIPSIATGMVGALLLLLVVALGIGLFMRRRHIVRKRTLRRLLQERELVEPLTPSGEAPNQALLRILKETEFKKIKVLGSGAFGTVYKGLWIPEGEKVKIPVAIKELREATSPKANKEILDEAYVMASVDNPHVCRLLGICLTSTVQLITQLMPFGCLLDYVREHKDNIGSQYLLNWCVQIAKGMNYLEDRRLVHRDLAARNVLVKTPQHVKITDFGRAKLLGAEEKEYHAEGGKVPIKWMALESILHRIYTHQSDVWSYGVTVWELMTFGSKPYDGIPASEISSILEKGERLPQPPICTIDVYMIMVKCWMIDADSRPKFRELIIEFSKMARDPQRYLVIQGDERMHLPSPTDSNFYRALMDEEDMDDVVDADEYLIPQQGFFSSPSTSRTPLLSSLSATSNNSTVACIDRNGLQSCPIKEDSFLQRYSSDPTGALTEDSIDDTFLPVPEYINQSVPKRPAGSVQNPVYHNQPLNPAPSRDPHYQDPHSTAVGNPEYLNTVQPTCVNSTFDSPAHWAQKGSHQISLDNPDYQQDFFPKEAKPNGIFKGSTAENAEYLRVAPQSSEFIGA

The inhibition is the percentage by which the read-out fell short of the control. For `C=CC(=O)Nc1cccc(-n2c(=O)cnc3cnc(Nc4ccc(N5CCN(C)CC5)cc4)nc32)c1` [Compound 020, N-(3-(2-(4-(4-methyl-1-piperazinyl)-phenylamino)-7-oxo-8(7H)-pteridin-yl)phenyl) acrylamide], the IC50 on wild-type EGFR is 1.47 nM; on EGFR-L858R, 1.2 nM; on EGFR-L858R/T790M, 0.824 nM; in [1] it was 0.043 µM; in [2], 0.002 µM; at BLK [3], less than 14 nM. Further, the IC50 at FLT3 was 322 nM. Besides, the inhibition at 1 µM is 11% on ABL; 52% at AUR B; 99% at BLK [4]; 18% on CDK2; 16% on GSK3b; 60% on HER4. Also, the inhibition at 1 µM on PKACa was found to be 15%. The inhibition at 10 µM turned out to be 39% at ABL; 87% at AUR B; 100% at BLK [4]; 49% at CDK2; 34% at GSK3b; 72% at HER4. The inhibition at 10 µM at PKACa stood at 4.7%.

Consider `C=CC(=O)Nc1cccc(-n2c(=O)cnc3cnc(Nc4ccc(N5CCN(C)CC5)cc4OC)nc32)c1` [Compound 032, N-(3-(2-(2-methoxy-4-(4-methyl-1-piperazinyl)-phenylamino)-7-oxo-8(7H)-pteridin-yl)phenyl)acrylamide], for which the IC50 on wild-type EGFR turned out to be 3.67 nM; at EGFR-L858R, 2.36 nM; at EGFR-L858R/T790M, 1.17 nM; in [1] it was 0.038 µM; in experiment [2], 0.004 µM; at BLK [3] it was 463 nM. Moreover, on FLT3, the IC50 was found to be 1170 nM. Also, the inhibition at 1 µM on ABL was determined as 5.8%; at AUR B it was 32%; at BLK [4], 85%; at CDK2, 25%; at GSK3b, 12%; on HER4 it was 60%. Also, the inhibition at 1 µM on PKACa was 6.9%. Moreover, the inhibition at 10 µM at ABL was determined as 13%; at AUR B it was 69%; on BLK [4], 99%; at CDK2, 48%; on GSK3b, 16%; on HER4, 77%. Besides, the inhibition at 10 µM on PKACa was 4%.
